Measurements published in patent US20110190300A1, “AMIDE COMPOUNDS AND THE USE THEREOF” (priority 2007, published 2011).
pIC50: −log10 of the molar value.

Columns and labels:
[1] = molecular target: T1, L-type calcium channel (LTCC) (Rattus norvegicus, UniProt P22002); experiment: FLIPR calcium mobilization assay for L-type calcium channel; format: cell-based; settings: calcium mobilization in vitro assay; HEK293 cells stably expressing recombinant rat LTCC subunits (α1c, α2δ, β1), 90 mM KCl
T1 construct: expressed in transfected cells; host or cells: HEK293, stably transfected (pcDNA6.2DEST α1c, pcDNA3.2DEST β1, pcDNA3.1-Zeo α2δ)
Experimental: Recombinant human embryonal kidney cells (HEK293, ATCC) stably transfected with either N-type calcium channel (NTCC) subunits (α1b, α2δ, and β3) or L-type calcium channel (LTCC) subunits (α1c, α2δ, and β1) were routinely cultured in growth medium consisting of Dulbecco's Modified Eagles Medium containing 10% FBS, 100 U/mL penicillin, 100 μg/mL streptomycin, 4 mM L-glutamine, 500 μg/mL geneticin (G418), 20 μg/mL Blasticidin S (InVivogen, San Diego, Calif.) and 500 μg/mL zeocin (InVivogen).
FLIPR Calcium Mobilization Assay for L-type Calcium Channel. One day prior to performing this assay, HEK293 cells stably expressing recombinant rat L-type calcium channel (LTCC) subunits (α1c, α2δ, and β1) were trypsinized, then seeded on poly-D-lysine-coated 96-well clear-bottom black plates (Becton Dickinson, Franklin Lakes, N.J.) at 75,000 cells/well. On the day of the assay, the plates were washed with LTCC wash buffer (127 mM NaCl, 2 mM MgCl2, 700 μM NaH2PO4, 5 mM CaCl2, 5 mM NaHCO3, 8 mM HEPES, 10 mM glucose, pH 7.4), then loaded with 0.1 mL of LTCC wash buffer containing Fluo-4 (3 μM final concentration, Molecular Probes, Eugene, Oreg.). After 1 hour, the cells were washed with 0.1 mL LTCC wash buffer and resuspended in 0.05 mL LTCC assay buffer (same composition as LTCC wash buffer). Plates were then transferred to a FLIPR^96 for assay. The FLIPR measured basal Fluo-4 fluorescence for 15 seconds, then added 0.05 mL of each compound tested diluted in LTCC assay buffer at final concentrations ranging from about 846 pM to about 17 μM. Fluo-4 fluorescence was then measured for 5 minutes. 0.1 mL KCl agonist dissolved in LTCC assay buffer was then added to the cells to produce a final concentration of 90 mM KCl, and fluorescence was measured for another 45 seconds. Data were collected over the entire time course and analyzed using Excel, Graph Pad Prism, or an in-house regression analysis software.

[2] = molecular target: T2, N-type calcium channel (NTCC) (Homo sapiens, UniProt Q00975); experiment: FLIPR calcium mobilization assay for N-type calcium channel; format: cell-based; settings: calcium mobilization in vitro assay; differentiated IMR32 cells, 5 μM nitrendipine, 90 mM KCl
T2 construct: host or cells: IMR32 cells differentiated with dibutyryl cyclic AMP and bromodeoxyuridine
Experimental: Cell maintenance and differentiation. Unless noted otherwise, cell culture reagents were purchased from Mediatech of Herndon, Md. IMR32 cells (American Type Culture Collection, ATCC, Manassas, Va.) were routinely cultured in growth medium consisting of minimum essential medium containing 10% fetal bovine serum (FBS, Hyclone, Logan, Utah), 100 U/mL penicillin, 100 μg/mL streptomycin, 2 mM L-glutamine, 1 mM sodium pyruvate, and 1× MEM non-essential amino acids. 80-90% confluent flasks of cells were differentiated using the following differentiation medium: Growth medium plus 1 mM dibutyryl cyclic AMP (Sigma, St. Louis, Mo.), and 2.5 μM bromodeoxyuridine (Sigma). Cells were differentiated for 8 days by replacing differentiation medium every 2-3 days.
FLIPR Calcium Mobilization Assay for N-type Calcium Channel. One day prior to performing this assay, differentiated IMR32 cells were treated with 1× CellStripper, and seeded on poly-D-lysine-coated 96-well clear-bottom black plates (Becton Dickinson, Franklin Lakes, N.J.) at 200,000 cells/well. On the day of the assay, the cell plates were washed with IMR32 buffer (127 mM NaCl, 1 mM KCl, 2 mM MgCl2, 700 μM NaH2PO4, 5 mM CaCl2, 5 mM NaHCO3, 8 mM HEPES, 10 mM glucose, pH 7.4), then pre-stimulated with KCl and loaded as follows: 0.05 mL of IMR32 buffer, 0.05 mL of each compound tested diluted in IMR32 buffer containing 20 μM nitrendipine (Sigma), and 0.1 mL KCl dissolved in IMR32 buffer, plus Fluo-4 were added (3 μM final concentration, Molecular Probes, Eugene, Oreg.). Final test compound concentrations ranged from about 846 pM to about 17 μM, final nitrendipine concentration was 5 μM, and final KCl concentration was 90 mM. After 1 hour, the cells were washed twice with 0.05 mL of each compound tested in nitrendipine-containing IMR32 buffer (no KCl or Fluo-4), and then replaced with 0.1 mL of each compound tested in nitrendipine-containing IMR32 buffer. Plates were then transferred to a Fluorimetric Imaging Plate Reader (FLIPR^96, Molecular Devices, Inc., Sunnyvale, Calif.) for assay. The FLIPR measured basal Fluo-4 fluorescence for 315 seconds (i.e., 5 minutes and 15 seconds), then added 0.1 mL KCl agonist dissolved in IMR32 buffer and measured fluorescence for another 45 seconds. Final test compound concentrations on the cells after FLIPR read ranged from about 846 pM to about 17 μM, final nitrendipine concentration was 5 μM, and final KCl concentration was 90 mM. Data were collected over the entire time course and analyzed using Excel, Graph Pad Prism (version 3.02, Graph Pad, San Diego, Calif.), or an in-house non-linear regression analysis software.

T1 sequence (P22002 whole entry): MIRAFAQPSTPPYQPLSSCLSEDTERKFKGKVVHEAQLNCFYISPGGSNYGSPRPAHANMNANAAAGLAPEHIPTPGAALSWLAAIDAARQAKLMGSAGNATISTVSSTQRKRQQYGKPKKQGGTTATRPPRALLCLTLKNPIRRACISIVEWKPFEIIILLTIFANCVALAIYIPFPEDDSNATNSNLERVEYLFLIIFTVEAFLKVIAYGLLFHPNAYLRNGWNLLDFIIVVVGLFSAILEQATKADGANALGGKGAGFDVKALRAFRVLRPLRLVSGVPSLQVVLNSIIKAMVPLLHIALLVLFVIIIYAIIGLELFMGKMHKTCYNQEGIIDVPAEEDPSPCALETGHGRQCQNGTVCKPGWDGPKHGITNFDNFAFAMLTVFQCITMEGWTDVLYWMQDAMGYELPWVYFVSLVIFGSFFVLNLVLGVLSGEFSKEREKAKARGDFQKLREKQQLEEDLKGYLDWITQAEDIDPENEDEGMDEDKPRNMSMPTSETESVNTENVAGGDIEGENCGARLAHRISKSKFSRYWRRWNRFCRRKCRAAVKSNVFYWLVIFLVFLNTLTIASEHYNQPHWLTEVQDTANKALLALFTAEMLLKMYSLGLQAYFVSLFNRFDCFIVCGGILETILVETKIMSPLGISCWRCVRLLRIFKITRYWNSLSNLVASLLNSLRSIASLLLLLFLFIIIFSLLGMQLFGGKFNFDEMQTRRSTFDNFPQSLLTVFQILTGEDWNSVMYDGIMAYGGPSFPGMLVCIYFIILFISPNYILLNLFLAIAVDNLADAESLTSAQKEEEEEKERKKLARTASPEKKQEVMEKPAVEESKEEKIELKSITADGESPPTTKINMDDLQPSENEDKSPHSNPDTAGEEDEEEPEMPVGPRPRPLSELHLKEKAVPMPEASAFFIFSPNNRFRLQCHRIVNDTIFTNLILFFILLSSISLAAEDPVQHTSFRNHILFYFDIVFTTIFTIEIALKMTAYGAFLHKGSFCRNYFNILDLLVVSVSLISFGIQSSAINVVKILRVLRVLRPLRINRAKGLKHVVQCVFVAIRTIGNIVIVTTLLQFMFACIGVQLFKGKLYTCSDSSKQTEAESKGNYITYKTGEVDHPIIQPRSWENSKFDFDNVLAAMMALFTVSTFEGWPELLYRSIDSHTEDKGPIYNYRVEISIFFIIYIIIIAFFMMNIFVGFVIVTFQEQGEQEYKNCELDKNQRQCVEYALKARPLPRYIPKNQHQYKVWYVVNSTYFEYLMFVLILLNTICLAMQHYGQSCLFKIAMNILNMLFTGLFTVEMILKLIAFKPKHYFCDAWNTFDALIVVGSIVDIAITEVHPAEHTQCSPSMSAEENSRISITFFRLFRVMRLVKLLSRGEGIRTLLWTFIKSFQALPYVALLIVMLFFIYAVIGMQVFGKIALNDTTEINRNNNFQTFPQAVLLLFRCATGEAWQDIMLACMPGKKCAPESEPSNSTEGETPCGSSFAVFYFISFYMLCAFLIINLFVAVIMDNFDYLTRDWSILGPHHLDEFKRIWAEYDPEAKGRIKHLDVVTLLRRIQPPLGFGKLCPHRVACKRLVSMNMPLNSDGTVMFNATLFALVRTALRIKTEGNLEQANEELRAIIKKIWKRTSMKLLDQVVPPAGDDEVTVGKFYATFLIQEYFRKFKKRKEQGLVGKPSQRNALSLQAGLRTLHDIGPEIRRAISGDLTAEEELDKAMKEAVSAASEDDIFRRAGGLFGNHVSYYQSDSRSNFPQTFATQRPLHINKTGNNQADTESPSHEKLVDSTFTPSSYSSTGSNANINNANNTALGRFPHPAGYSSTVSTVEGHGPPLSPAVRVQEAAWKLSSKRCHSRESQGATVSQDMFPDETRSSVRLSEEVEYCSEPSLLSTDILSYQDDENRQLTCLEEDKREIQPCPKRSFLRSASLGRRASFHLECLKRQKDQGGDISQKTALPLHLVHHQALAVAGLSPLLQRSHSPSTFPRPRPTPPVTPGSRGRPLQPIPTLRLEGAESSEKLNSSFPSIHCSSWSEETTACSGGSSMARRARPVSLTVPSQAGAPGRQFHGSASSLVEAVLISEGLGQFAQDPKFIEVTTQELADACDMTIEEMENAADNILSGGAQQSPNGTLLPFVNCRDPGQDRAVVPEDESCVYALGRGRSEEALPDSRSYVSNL
T1 sequence (P54290 25-944 partner limits assumed): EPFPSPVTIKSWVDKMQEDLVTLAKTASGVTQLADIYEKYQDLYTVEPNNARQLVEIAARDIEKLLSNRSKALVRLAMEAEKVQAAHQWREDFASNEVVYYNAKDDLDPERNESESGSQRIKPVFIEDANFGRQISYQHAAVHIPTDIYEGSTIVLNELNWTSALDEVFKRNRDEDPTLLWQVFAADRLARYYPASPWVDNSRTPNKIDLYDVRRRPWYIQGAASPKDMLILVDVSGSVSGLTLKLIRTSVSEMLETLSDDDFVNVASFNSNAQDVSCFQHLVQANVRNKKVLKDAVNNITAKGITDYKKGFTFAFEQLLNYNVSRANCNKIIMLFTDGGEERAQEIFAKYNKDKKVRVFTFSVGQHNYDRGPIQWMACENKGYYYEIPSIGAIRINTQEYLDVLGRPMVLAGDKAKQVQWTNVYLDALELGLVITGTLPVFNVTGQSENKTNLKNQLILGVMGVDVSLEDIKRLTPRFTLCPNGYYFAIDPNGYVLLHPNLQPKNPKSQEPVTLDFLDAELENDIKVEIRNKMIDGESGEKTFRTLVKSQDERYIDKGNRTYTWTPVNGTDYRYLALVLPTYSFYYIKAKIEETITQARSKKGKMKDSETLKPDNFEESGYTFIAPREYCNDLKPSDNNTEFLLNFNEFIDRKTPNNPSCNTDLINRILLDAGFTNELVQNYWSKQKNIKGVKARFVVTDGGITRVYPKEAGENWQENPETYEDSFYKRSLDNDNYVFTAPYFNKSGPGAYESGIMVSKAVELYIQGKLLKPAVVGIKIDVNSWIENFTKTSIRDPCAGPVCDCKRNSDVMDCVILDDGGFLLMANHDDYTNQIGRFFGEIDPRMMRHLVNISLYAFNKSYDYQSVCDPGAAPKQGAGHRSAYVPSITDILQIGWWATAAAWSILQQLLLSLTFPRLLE
T1 sequence (P54290 945-1091 partner limits assumed): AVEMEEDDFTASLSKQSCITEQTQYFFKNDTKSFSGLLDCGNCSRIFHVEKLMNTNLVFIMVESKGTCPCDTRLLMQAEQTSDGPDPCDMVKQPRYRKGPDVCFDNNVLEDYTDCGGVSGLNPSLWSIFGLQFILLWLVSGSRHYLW
T1 sequence (P54283 whole entry partner): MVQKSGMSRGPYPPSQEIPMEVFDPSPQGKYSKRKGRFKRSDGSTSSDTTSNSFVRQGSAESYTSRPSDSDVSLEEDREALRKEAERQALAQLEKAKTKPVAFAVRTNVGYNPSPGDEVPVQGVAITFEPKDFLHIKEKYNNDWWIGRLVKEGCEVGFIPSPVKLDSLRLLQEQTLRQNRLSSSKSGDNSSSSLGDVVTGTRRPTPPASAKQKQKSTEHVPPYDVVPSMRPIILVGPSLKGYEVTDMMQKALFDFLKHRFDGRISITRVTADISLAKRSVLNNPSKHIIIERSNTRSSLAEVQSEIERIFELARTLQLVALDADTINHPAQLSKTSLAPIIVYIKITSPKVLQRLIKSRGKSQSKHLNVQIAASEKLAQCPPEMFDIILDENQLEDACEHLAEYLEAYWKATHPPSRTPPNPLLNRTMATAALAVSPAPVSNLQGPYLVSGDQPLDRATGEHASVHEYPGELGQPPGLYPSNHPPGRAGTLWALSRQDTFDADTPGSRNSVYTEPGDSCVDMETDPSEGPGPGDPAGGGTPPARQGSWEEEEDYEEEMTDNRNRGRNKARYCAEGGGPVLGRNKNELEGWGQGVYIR

## CC(C)CNC(=O)CON=C1CCN(S(=O)(=O)c2ccc(OC(F)(F)F)cc2)CC1 [Example 99, N-Isobutyl-2-[1-(4-trifluoromethoxybenzenesulfonyl)piperidin-4-ylideneaminooxy]acetamide]
[1]
  pIC50: < 4.70
[2]
  pIC50: 6.52

## O=C(CON=C1CCN(S(=O)(=O)c2ccc(OC(F)(F)F)cc2)CC1)NCc1ccccc1 [Example 98, N-Benzyl-2-[1-(4-trifluoromethoxybenzenesulfonyl)piperidin-4-ylideneaminooxy]acetamide]
[1]
  pIC50: < 4.70
[2]
  pIC50: 5.96

## CN(C(=O)CON=C1CCN(S(=O)(=O)c2ccc(OC(F)(F)F)cc2)CC1)c1ccccc1 [Example 3, N-Methyl-N-phenyl-2-[1-(4-trifluoromethoxybenzenesulfonyl)piperidin-4-ylideneaminooxy]acetamide]
[1]
  pIC50: 5.07
[2]
  pIC50: 5.92

## O=C(CON=C1CCN(S(=O)(=O)c2ccc(OC(F)(F)F)cc2)CC1)NC1CCCCC1 [Example 100, N-Cyclohexyl-2-[1-(4-trifluoromethoxybenzenesulfonyl)piperidin-4-ylideneaminooxy]acetamide]
[1]
  pIC50: < 4.70
[2]
  pIC50: 6.39

## CCCNC(=O)CON=C1CCN(S(=O)(=O)c2ccc(OC(F)(F)F)cc2)CC1 [Example 102, N-Propyl-2-[1-(4-trifluoromethoxybenzenesulfonyl)piperidin-4-ylideneaminooxy]acetamide]
[1]
  pIC50: < 4.70
[2]
  pIC50: 6.68

## O=C(Nc1ccc(F)cc1)ON=C1CCN(S(=O)(=O)c2cccc(C(F)(F)F)c2)CC1 [Example 104, 1-(3-(trifluoromethyl)phenylsulfonyl)piperidin-4-one O-4-fluorophenylcarbamoyl oxime]
[1]
  pIC50: < 4.70
[2]
  pIC50: 6.62

## O=C(Nc1ccc(F)cc1)ON=C1CCN(C(=O)Oc2cccc(C(F)(F)F)c2)CC1 [Example 131, 3-(trifluoromethyl)phenyl 4-(4-fluorophenylcarbamoyloxyimino)piperidine-1-carboxylate]
[2]
  pIC50: 5.74

## O=C(CON=C1CCN(S(=O)(=O)c2ccc(OC(F)(F)F)cc2)CC1)Nc1ccccc1 [Example 2, N-Phenyl-2-[1-(4-trifluoromethoxybenzenesulfonyl)piperidin-4-ylideneaminooxy]acetamide]
[1]
  pIC50: < 4.70
[2]
  pIC50: 6.38
